Earlier results as cited in US7435726B2, “Compositions and methods for the treatment of cancer” (Celgene Corporation, priority 2001, dated 2008).

Settings: irinotecan monotherapy, expected frequency

Abdominal colic/pain, Expected (%) Grade 1-4: 23.7%
Abdominal colic/pain, Expected (%) Grade 3-4: 2.3%
Asthenia, Expected (%) Grade 1-4: 75.7%
Asthenia, Expected (%) Grade 3-4: 12.2%
Constipation, Expected (%) Grade 1-4: 29.9%
Constipation, Expected (%) Grade 3-4: 2.0%
Diarrhea (Late), Expected (%) Grade 1-4: 87.8%
Diarrhea (Late), Expected (%) Grade 3-4: 30.6%
Nausea, Expected (%) Grade 1-4: 86.2%
Vomiting, Expected (%) Grade 1-4: 66.8%
Vomiting, Expected (%) Grade 3-4: 12.5%
SMILES: CCc1c2c(nc3ccc(OC(=O)N4CCC(N5CCCCC5)CC4)cc13)-c1cc3c(c(=O)n1C2)COC(=O)[C@]3(O)CC [Irinotecan, (4S)-4,11-diethyl-4-hydroxy-9-[(4-piperidino-piperidino)carbonyl-oxy]1H-pyranol-[3′,4′:6,7]indolizinol[1,2-b]quinoline-3,14-(4H,12H)dione]
